ChEMBL document CHEMBL2203211, “Isocytosine-based inhibitors of xanthine oxidase: design, synthesis, SAR, PK and in vivo efficacy in rat model of hyperuricemia” (Bioorg Med Chem Lett, 2012)
Blank lines part the entries; values can stand above or below the compound they belong to. The source made the active and inactive calls. The rule behind the calls is not given here.

Experiments:
[1] = molecular target: Xanthine dehydrogenase/oxidase (Homo sapiens, UniProt P47989)
Description: Inhibition of xanthine oxidase using xanthine as substrate at 30 mins by spectrophotometric analysis

Rattus norvegicus [2] = test: Antihyperuricemic activity in fasted rat assessed as reduction in potassium oxonate-induced uric acid level in serum at 10 mg/kg, po administered 1 hr post potassium oxonate-challenge relative to vehicle-treated control; format: functional; set-up: scale not given: the % may be the effect or the level left
Rattus norvegicus [3] = test: Antihyperuricemic activity in fasted rat assessed as reduction in potassium oxonate-induced uric acid level in serum at 100 mg/kg, ip administered 1 hr post potassium oxonate-challenge relative to vehicle-treated control; format: functional; set-up: scale not given: the % may be the effect or the level left; conditions: route intraperitoneal
[4] = Cmax in rat at 50 mg/kg, ip; format: ADME, organism-based; set-up: dose 50 mg/kg, route intraperitoneal; conditions: in vivo
[5] = Tmax in rat at 50 mg/kg, ip; format: ADME, organism-based; set-up: dose 50 mg/kg, route intraperitoneal; conditions: in vivo
[6] = AUC (0 to infinity) in rat at 50 mg/kg, ip; format: ADME, organism-based; set-up: time infinity, dose 50 mg/kg, route intraperitoneal; conditions: plasma
[7] = AUClast in rat at 100 mg/kg, po; format: ADME, organism-based; set-up: time 0 - last, dose 100 mg/kg, route oral; conditions: plasma
[8] = AUC (0 to infinity) in rat at 100 mg/kg, po; format: ADME, organism-based; set-up: time infinity, dose 100 mg/kg, route oral; conditions: plasma
[9] = Half life in rat at 50 mg/kg, ip; format: ADME, organism-based; set-up: dose 50 mg/kg, route intraperitoneal; conditions: in vivo
[10] = Cmax in rat at 100 mg/kg, po; format: ADME, organism-based; set-up: dose 100 mg/kg, route oral; conditions: in vivo
[11] = Half life in rat at 100 mg/kg, po; format: ADME, organism-based; set-up: dose 100 mg/kg, route oral; conditions: in vivo
[12] = AUClast in rat at 50 mg/kg, ip; format: ADME, organism-based; set-up: time 0 - last, dose 50 mg/kg, route intraperitoneal; conditions: plasma
[13] = Tmax in rat at 100 mg/kg, po; format: ADME, organism-based; set-up: dose 100 mg/kg, route oral; conditions: in vivo
[14] = Cmax in rat at 10 mg/kg, po; format: ADME, organism-based; set-up: dose 10 mg/kg, route oral; conditions: in vivo
[15] = Tmax in rat at 10 mg/kg, po; format: ADME, organism-based; set-up: dose 10 mg/kg, route oral; conditions: in vivo
[16] = Volume of distribution in rat at 2 mg/kg, iv; format: ADME, organism-based; set-up: dose 2 mg/kg, route intravenous; conditions: in vivo
[17] = Initial plasma concentration in rat at 2 mg/kg iv; format: ADME, organism-based; set-up: dose 2 mg/kg, route intravenous
[18] = AUC (0 to infinity) in rat at 10 mg/kg, po; format: ADME, organism-based; set-up: time infinity, dose 10 mg/kg, route oral; conditions: plasma
[19] = AUC (0 to infinity) in rat at 2 mg/kg, iv; format: ADME, organism-based; set-up: time infinity, dose 2 mg/kg, route intravenous; conditions: plasma
[20] = Tmax in rat at 2 mg/kg, iv; format: ADME, organism-based; set-up: dose 2 mg/kg, route intravenous; conditions: in vivo
[21] = Half life in rat at 2 mg/kg, iv; format: ADME, organism-based; set-up: dose 2 mg/kg, route intravenous; conditions: in vivo
[22] = Clearance in rat at 2 mg/kg, iv; format: ADME, organism-based; set-up: dose 2 mg/kg, route intravenous; conditions: in vivo
[23] = Cmax in rat at 2 mg/kg, iv; format: ADME, organism-based; set-up: dose 2 mg/kg, route intravenous; conditions: in vivo
[24] = AUClast in rat at 10 mg/kg, po; format: ADME, organism-based; set-up: time 0 - last, dose 10 mg/kg, route oral; conditions: plasma
[25] = AUClast in rat at 2 mg/kg, iv; format: ADME, organism-based; set-up: time 0 - last, dose 2 mg/kg, route intravenous; conditions: plasma
[26] = Half life in rat at 10 mg/kg, po; format: ADME, organism-based; set-up: dose 10 mg/kg, route oral; conditions: in vivo
Rattus norvegicus [27] = test: Antihyperuricemic activity in fasted rat assessed as reduction in potassium oxonate-induced uric acid level in serum at 100 mg/kg, po administered 1 hr post potassium oxonate-challenge relative to vehicle-treated control; format: functional; set-up: scale not given: the % may be the effect or the level left
Rattus norvegicus [28] = test: Antihyperuricemic activity in fasted rat assessed as reduction in potassium oxonate-induced uric acid level in serum at 100 mg/kg, po administered 1 hr post potassium oxonate-challenge relative to allopurinol; format: functional
Rattus norvegicus [29] = test: Antihyperuricemic activity in fasted rat assessed as reduction in potassium oxonate-induced uric acid level in serum at 50 mg/kg, ip administered 1 hr post potassium oxonate-challenge relative to vehicle-treated control; format: functional; set-up: scale not given: the % may be the effect or the level left; conditions: route intraperitoneal
Rattus norvegicus [30] = test: Antihyperuricemic activity in fasted rat assessed as reduction in potassium oxonate-induced uric acid level in serum at 200 mg/kg, po administered 1 hr post potassium oxonate-challenge relative to vehicle-treated control; format: functional, organism-based; set-up: dose 200 mg/kg

Chain of Xanthine dehydrogenase/oxidase (P47989 whole entry): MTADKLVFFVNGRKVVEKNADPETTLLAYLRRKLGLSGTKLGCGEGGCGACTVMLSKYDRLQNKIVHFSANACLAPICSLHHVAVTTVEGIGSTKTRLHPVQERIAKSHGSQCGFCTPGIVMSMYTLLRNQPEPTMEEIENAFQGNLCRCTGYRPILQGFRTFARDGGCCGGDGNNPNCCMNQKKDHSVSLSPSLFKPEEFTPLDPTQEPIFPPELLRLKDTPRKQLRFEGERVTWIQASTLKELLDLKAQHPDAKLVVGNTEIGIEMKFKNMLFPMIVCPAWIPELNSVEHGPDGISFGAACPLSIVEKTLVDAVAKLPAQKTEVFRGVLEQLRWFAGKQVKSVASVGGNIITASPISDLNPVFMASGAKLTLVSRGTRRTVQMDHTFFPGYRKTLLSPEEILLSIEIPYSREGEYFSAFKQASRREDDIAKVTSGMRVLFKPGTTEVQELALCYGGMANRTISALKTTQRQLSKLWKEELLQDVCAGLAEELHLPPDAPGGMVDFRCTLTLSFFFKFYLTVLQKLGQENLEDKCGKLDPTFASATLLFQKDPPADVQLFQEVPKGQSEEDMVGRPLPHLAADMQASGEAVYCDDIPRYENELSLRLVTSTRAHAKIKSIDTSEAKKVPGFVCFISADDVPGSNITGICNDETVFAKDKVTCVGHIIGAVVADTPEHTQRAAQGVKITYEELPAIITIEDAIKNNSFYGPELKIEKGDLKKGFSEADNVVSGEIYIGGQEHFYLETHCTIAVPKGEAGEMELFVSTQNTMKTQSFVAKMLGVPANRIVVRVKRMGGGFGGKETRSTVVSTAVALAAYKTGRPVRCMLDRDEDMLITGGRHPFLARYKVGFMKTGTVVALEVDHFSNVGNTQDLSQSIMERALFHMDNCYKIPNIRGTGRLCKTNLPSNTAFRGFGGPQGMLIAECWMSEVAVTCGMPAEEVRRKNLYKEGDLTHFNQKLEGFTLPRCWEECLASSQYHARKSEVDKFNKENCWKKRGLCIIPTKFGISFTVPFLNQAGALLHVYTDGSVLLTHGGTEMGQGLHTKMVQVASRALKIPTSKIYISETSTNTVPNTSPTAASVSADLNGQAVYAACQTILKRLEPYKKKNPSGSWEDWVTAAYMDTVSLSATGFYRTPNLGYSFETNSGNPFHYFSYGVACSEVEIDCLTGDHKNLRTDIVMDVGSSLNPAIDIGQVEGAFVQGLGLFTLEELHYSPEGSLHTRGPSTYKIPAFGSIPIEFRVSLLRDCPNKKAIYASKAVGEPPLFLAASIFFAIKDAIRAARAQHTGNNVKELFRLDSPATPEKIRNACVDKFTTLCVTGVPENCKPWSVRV

Structure (SMILES): CC(C)Cc1ccc(-c2cc(O)nc(N)n2)cc1
- IC50 [1]: 4950 nM

Structure (SMILES): Nc1nc(O)cc(-c2ccc(OCCCO)cc2)n1
- IC50 [1]: 9240 nM

Structure (SMILES): Oc1ncnc2[nH]ncc12 [ALLOPURINOL]
- Activity (Rattus norvegicus [2]): 130%
- Activity (Rattus norvegicus [3]): 177%

Structure (SMILES): CC(C)COc1ccc(-c2cc(=O)[nH]c(N)n2)cc1N
- IC50 [1]: 6720 nM

Structure (SMILES): CC(C)COc1ccc(-c2cc(=O)[nH]c(N)n2)cc1OC(F)(F)F
- IC50 [1]: > 20000 nM

Structure (SMILES): Nc1nc(-c2ccc(O)cc2)cc(=O)[nH]1
- IC50 [1]: > 30000 nM

Structure (SMILES): Nc1nc(-c2ccc(-c3ccccc3)cc2)cc(=O)[nH]1
- Cmax [4]: 7.13 µM
- Tmax [5]: 3.33 h
- AUC(0-inf) [6]: 23100 ng·h/mL
- AUC(0-t) [7]: 600 ng·h/mL
- AUC(0-inf) [8]: 890 ng·h/mL
- half-life [9]: 5.52 h
- Cmax [10]: 0.81 µM
- half-life [11]: 2.85 h
- AUC(0-t) [12]: 21900 ng·h/mL
- Tmax [13]: 0.88 h

Structure (SMILES): COc1ccc(-c2cc(=O)[nH]c(N)n2)cc1
- AUC(0-t) [7]: 4080 ng·h/mL
- AUC(0-inf) [8]: 4110 ng·h/mL
- Cmax [10]: 23.5 µM
- half-life [11]: 6.59 h
- Tmax [13]: 0.25 h

Structure (SMILES): Nc1nc(O)cc(-c2ccc(N3CCOCC3)cc2)n1
- IC50 [1]: 16500 nM

Structure (SMILES): CC(C)COc1ccc(-c2cc(=O)[nH]c(N)n2)cc1C#N
- Cmax [14]: 0.23 µM
- Tmax [15]: 0.19 h
- Vd [16]: 3.83 L/kg
- C0 [17]: 1360 ng/mL
- AUC(0-inf) [18]: 310 ng·h/mL
- AUC(0-inf) [19]: 480 ng·h/mL
- Tmax [20]: 1.8 min
- half-life [21]: 0.63 h
- clearance [22]: 71.3 mL/min/kg
- Cmax [23]: 4.19 µM
- AUC(0-t) [24]: 200 ng·h/mL
- AUC(0-t) [25]: 470 ng·h/mL
- half-life [26]: 11.4 h

Structure (SMILES): CC(C)COc1ccc(-c2cc(O)nc(N)n2)cc1
- AUC(0-t) [7]: 4390 ng·h/mL
- AUC(0-inf) [8]: 5680 ng·h/mL
- Cmax [10]: 5.16 µM
- Activity (Rattus norvegicus [27]): 23.7%
- Efficacy (Rattus norvegicus [28]): 18%
- half-life [11]: 3.42 h
- Activity (Rattus norvegicus [3]): 77%
- Tmax [13]: 0.5 h

Structure (SMILES): CC(C)COc1ccc(-c2cc(O)nc(N)n2)cc1C#N
- Activity (Rattus norvegicus [30]): inactive
- Activity (Rattus norvegicus [3]): 124%

Now from value to compound, other results behind:

- IC50 [1]: 2440 nM
Structure (SMILES): CC(C)Sc1ccc(-c2cc(O)nc(N)n2)cc1

- IC50 [1]: 2100 nM
Structure (SMILES): CCCCOc1ccc(-c2cc(=O)[nH]c(N)n2)cc1

- IC50 [1]: 1630 nM
Structure (SMILES): CCCCSc1ccc(-c2cc(=O)[nH]c(N)n2)cc1

- Cmax [4]: 9.59 µM
- Tmax [5]: 2 h
- AUC(0-inf) [6]: 17600 ng·h/mL
- half-life [9]: 12.2 h
- IC50 [1]: 140 nM
- AUC(0-t) [12]: 14000 ng·h/mL
Structure (SMILES): CC(C)COc1ccc(-c2cc(O)nc(N)n2)cc1[N+](=O)[O-]
- Activity (Rattus norvegicus [27]): 93%
- Activity (Rattus norvegicus [3]): 133%

- IC50 [1]: 1920 nM
Structure (SMILES): CC(C)COc1ccc(-c2cc(=O)[nH]c(N)n2)cc1C(N)=O

- Cmax [4]: 34.3 µM
- Tmax [5]: 2 h
- AUC(0-inf) [6]: 27700 ng·h/mL
- half-life [9]: 0.85 h
- IC50 [1]: 950 nM
- AUC(0-t) [12]: 27600 ng·h/mL
Structure (SMILES): COc1cc(-c2cc(O)nc(N)n2)ccc1OCC(C)C
- Activity (Rattus norvegicus [29]): 55%

- IC50 [1]: 2470 nM
Structure (SMILES): Nc1nc(O)cc(-c2ccc(Oc3ccccc3)cc2)n1

- IC50 [1]: 30 nM
Structure (SMILES): Cc1nc(-c2ccc(OCC(C)C)c(C#N)c2)sc1C(=O)O [FEBUXOSTAT]
- Activity (Rattus norvegicus [2]): 180%
- Activity (Rattus norvegicus [3]): 181%
